Results: patent US11572359B2, “PARP/PI3K double-target inhibit containing pyridopyrimidine structure” (CHINA PHARMACEUTICAL UNIVERSITY, priority 2017, dated 2023)
Like-named read-outs stand apart in the source and are kept apart here.

Tests used:
PARP-1 = PARP-1 (Homo sapiens, UniProt P09874); test: PARP-1 inhibitory activity at the enzyme level (histone-coated plate, chemiluminescence); format: biochemical; conditions: for inhibition at 0.01 µM: 10 nM compound, read-out: Inhibition rate on PARP-1 (10 nM)
Sequence of PARP-1 (P09874 whole entry): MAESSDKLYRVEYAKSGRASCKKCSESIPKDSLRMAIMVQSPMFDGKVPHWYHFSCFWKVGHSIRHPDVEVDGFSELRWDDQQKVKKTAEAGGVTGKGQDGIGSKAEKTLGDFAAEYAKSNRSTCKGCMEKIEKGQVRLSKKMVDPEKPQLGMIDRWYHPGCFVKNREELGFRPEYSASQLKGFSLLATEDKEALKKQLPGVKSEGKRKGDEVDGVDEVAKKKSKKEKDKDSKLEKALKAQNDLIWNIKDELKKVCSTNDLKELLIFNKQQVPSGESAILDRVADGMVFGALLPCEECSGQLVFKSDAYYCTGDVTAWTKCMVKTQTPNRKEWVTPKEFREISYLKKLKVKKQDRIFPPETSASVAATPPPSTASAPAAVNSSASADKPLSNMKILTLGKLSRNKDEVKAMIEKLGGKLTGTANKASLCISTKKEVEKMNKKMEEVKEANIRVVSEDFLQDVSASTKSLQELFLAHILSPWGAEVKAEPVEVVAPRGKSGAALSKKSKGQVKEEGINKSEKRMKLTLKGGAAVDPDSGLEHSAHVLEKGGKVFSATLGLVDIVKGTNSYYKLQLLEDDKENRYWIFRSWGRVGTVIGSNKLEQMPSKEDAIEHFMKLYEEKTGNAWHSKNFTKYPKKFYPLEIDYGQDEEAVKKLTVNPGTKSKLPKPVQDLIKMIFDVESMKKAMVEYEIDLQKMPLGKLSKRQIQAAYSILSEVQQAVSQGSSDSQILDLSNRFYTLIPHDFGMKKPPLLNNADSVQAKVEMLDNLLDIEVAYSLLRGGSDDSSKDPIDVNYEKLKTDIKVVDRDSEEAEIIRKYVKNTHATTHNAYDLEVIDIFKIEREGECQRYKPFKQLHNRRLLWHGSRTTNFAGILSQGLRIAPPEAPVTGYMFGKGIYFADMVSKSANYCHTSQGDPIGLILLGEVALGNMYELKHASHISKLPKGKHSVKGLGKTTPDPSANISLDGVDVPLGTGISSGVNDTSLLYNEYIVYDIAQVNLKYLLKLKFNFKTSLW
Description: Experimental method for PARP-1 inhibitory activity: taking out a 96-well plate pre-coated with histones, and adding a following enzyme reaction system and inhibitors of different concentrations into each well, including: 50 μL of a reaction buffer solution (Tris*HCl, pH 8.0), NAD^+, biotin-labeled activated DNA, PARP-1 enzyme, and an inhibitor; after reaction at a room temperature for 1 hour, adding 50 uL of avidin-labeled HRP into each well for reaction for 30 minutes; and then adding 100 μL of an HRP substrate, and detecting a chemiluminescence value on a SpectraMax M instrument. The percentage of enzyme activity is calculated by the following formula: Enzyme activity percentage (%)=(OD value administration hole-OD value background)/(OD value control hole−OD value background)×100%
(§1) Method for determining IC50 of PARP-1 and PI3Kα: diluting a drug concentration according to a three-fold concentration gradient, and detecting two duplicate wells at each concentration; taking the drug concentration as the abscissa and the percentage of enzyme activity corresponding to each concentration as the ordinate, and calculating to obtain inhibition IC50 values of all tested compounds by using Graphpad Prism5 for nonlinear regression.

PI3Kα = PI3Kα (Homo sapiens, UniProt P42336); test: PI3Kα inhibitory activity at the enzyme level (ADP detection by luciferase method); format: biochemical; conditions: for inhibition at 0.1 µM: 100 nM compound, read-out: Inhibition rate on PI3Kα (100 nM)
Sequence of PI3Kα (P42336 whole entry): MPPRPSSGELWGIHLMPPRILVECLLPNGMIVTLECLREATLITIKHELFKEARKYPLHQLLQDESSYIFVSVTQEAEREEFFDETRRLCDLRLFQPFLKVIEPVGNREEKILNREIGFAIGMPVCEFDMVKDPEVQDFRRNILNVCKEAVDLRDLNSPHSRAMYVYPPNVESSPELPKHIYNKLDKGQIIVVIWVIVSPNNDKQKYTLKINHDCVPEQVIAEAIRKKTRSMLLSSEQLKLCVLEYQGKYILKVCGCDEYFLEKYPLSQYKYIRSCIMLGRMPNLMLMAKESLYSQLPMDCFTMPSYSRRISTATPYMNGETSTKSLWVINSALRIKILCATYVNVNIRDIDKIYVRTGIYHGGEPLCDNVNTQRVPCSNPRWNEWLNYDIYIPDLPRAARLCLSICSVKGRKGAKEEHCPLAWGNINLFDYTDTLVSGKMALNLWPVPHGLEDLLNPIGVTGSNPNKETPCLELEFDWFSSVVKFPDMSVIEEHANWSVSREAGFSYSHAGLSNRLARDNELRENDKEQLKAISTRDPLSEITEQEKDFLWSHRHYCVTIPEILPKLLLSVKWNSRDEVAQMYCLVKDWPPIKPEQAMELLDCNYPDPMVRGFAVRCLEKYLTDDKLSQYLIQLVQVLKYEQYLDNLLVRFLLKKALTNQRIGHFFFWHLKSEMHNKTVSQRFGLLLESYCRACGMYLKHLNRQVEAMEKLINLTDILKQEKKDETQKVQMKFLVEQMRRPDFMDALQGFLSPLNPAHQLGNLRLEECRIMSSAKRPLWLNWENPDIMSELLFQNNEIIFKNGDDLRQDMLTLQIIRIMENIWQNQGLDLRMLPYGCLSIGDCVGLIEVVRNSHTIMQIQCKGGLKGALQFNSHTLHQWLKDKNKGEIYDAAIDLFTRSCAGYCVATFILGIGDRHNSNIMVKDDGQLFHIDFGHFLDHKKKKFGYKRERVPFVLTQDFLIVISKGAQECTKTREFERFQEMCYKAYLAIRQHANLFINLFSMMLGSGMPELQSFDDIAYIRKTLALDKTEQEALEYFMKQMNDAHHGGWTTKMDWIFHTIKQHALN
Sequence of PI3Kα (P27986 whole entry partner): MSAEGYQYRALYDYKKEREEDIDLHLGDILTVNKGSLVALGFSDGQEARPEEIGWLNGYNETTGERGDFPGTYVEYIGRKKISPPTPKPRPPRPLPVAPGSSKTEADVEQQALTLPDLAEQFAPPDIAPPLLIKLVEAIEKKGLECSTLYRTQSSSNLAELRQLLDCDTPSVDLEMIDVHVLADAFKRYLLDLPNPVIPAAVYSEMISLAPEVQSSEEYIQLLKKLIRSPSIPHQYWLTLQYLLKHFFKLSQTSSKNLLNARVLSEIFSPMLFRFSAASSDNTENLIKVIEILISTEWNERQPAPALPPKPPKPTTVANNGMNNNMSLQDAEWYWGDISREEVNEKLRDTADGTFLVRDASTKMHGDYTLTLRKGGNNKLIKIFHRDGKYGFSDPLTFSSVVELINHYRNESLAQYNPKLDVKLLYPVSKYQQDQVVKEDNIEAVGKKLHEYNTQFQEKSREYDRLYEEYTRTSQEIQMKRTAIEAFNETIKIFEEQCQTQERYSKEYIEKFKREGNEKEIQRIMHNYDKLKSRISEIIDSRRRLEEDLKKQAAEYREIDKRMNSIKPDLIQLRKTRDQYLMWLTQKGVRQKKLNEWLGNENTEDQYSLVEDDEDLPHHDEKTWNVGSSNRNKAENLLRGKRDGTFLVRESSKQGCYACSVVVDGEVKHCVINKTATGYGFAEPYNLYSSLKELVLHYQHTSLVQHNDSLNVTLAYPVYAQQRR
Description: Experimental method for PI3Kα inhibitory activity: simultaneously adding 40 mM Tris, pH 7.4, 10 mM MgCl2, 0.1 mg/ml BSA, 1 mM DTT, 10 μM ATP, PI3Kα kinase and a kinase substrate into different concentrations of compounds to be sieved to form a 50 μL reaction system, after reaction at 30° C. for 40 minutes, detecting an ADP content in the system through a luciferase method, and then after reaction for 5 minutes, detecting a chemiluminescence signal on an MD-SpectraMax M5 multi-function microplate reader, wherein the intensity of a value of the chemiluminescence signal is in direct proportion to […]. The detected value of the chemiluminescence signal is substituted into the following formula: Enzyme activity percentage (%)=(OD value administration hole-OD value background)/(OD value control hole−OD value background)×100%
as §1

[1] = test system: HCT116 (human colon cancer cells); test: Tumor cell proliferation inhibition (SRB, 72 hours), HCT116; format: cell-based
Description: (§2) Inoculating HCT116 (human colon cancer cells), HCC1937 (human breast cancer cells), MDA-MB-231 (human breast cancer cells) and MDA-MB-468 (human breast cancer cells) in a logarithmic growth phase with a certain quantity in a 96-well plate (200 μL/well) for culture for 24 hours so as to adhere to walls and then adding drugs. Arranging 3 duplicate wells for each drug concentration, and setting corresponding zero-cut holes and blank controls. After 72 hours of drug action, adding 50% TCA (50 μL/well) into adherent cells, fixing at 4° C. for 1 hour, pouring a fixing solution, washing for 5 times with distilled water, and naturally drying. Adding 100 μL of 4 mg/mL SRB into each well, staining at a room temperature for 15 minutes, discarding, washing for 5 times with 1% glacial acetic acid, and naturally drying. Finally, adding 150 μL of a 10 mM Tris solution into each well, shaking to be uniform, and measuring OD values at a wavelength of 565 nm using a wavelength-adjustable microplate reader (VERSAmax™, Molecular Device).

[2] = test system: HCC1937 (human breast cancer cells); test: Tumor cell proliferation inhibition (SRB, 72 hours), HCC1937; format: cell-based
Description: as §2

[3] = test system: MDA-MB-231 (human breast cancer cells); test: Tumor cell proliferation inhibition (SRB, 72 hours), MDA-MB-231; format: cell-based
Description: as §2

[4] = test system: MDA-MB-468 (human breast cancer cells); test: Tumor cell proliferation inhibition (SRB, 72 hours), MDA-MB-468; format: cell-based
Description: as §2

[5] = test system: Human Breast Cancer MDA-MB-468 Cell Nude Mice Xenograft; test: Growth of human breast cancer MDA-MB-468 cell nude mice xenograft; format: in vivo; conditions: for Tumor Volumes / Tumor weights: abdominal cavity, once every 2 days; for Anti-tumor effect compared with the combination group olaparib (50 mg/kg)/BKM120 (27.5 mg/kg) (in words): p<0.05; for Inhibition of the growth of the MDA-MB-468 nude mice xenografts (in words) / Inhibition rate compared with positive drugs olaparib and BKM120 (in words): I-1 50 mg/kg, 1-3 50 mg/kg, olaparib 50 mg/kg/BKM120 27.5 mg/kg; for Tumor weights: after 34 days, in g (unit assumed)
Description: Preparing an MDA-MB-468 cell line in a logarithmic growth phase into a 2×10^7/mL cell suspension under sterile conditions, and inoculating 0.1 mL of the cell suspension under the skin of the right axilla of each nude mouse. Measuring the diameter of a nude mice xenograft with a vernier caliper, and randomly dividing the animals into groups after the tumors grew to about 100 mm^3. Dynamically observing an anti-tumor effect of the tested animals using a method of measuring the tumor diameter, wherein the frequency of measurements of the tumor diameter is once every 2 days, and the administration volume is 0.4 mL/20 g. After 34 days, killing the mice and surgically removing and weighing tumor pieces. The formula for calculating tumor volume (TV) is: TV=½×a×b^2, wherein a and b represent the length and the width respectively.

[6] = 12 days, 50 mg/kg (I-1: medium)
[7] = 18 days, 50 mg/kg (I-1: medium)
[8] = 24 days, 50 mg/kg (I-1: medium)
[9] = 30 days, 50 mg/kg (I-1: medium)
[10] = 34 days, 50 mg/kg (I-1: medium)

Row | SMILES | IC50 (PARP-1) [nM] | inhibition at 0.01 µM (PARP-1) [%] | IC50 (PI3Kα) [nM] | inhibition at 0.1 µM (PI3Kα) [%] | IC50 ([1]; Homo sapiens, HCT-116, 72 h) [nM] | IC50 ([2]; Homo sapiens, HCC1937, 72 h) [nM] | IC50 ([3]; Homo sapiens, MDA-MB-231, 72 h) [nM] | IC50 ([4]; Homo sapiens, MDA-MB-468, 72 h) [nM] | IC50 [2] [nM] | IC50 [4] [nM] | Tumor Volumes ([5]; 0 day, 50 mg/kg (I-1: medium)) [mm^3] | Anti-tumor effect compared with the combination group olaparib (50 mg/kg)/BKM120 (27.5 mg/kg) (in words) ([5]; 50 mg/kg) | Tumor Volumes ([5]; 6 days, 50 mg/kg (I-1: medium)) [mm^3] | Tumor Volumes [5, 6] [mm^3] | Tumor Volumes [5, 7] [mm^3] | Tumor Volumes [5, 8] [mm^3] | Tumor Volumes [5, 9] [mm^3] | Tumor Volumes [5, 10] [mm^3] | Inhibition of the growth of the MDA-MB-468 nude mice xenografts (in words) [5] | Inhibition rate compared with positive drugs olaparib and BKM120 (in words) [5] | also measured
1 | Nc1ccc(-c2nc3c(c(N4CCOCC4)n2)CCN(C(=O)c2cc(Cc4n[nH]c(=O)c5ccccc45)ccc2F)C3)cn1 [I-2, 4-(3-(2-(6-aminopyridin-3-yl)-4-morpholinyl-5,6,7,8-tetrahydropyrido[3,4-d]pyrimidin-7-formyl)-4-fluorobenzyl)phthalazin-1(2H)-one] | 0.395 | 93 | 130 | 66 | 217 | 121 | 816 | 1340 | – | – | – | – | – | – | – | – | – | – | – | – | –
2 | C[C@@H]1CN(c2nc(-c3cnc(N)nc3)nc3c2CCN(C(=O)c2cc(Cc4n[nH]c(=O)c5ccccc45)ccc2F)C3)C[C@H](C)O1 [I-12, 4-(3-(2-(2-aminopyrimidin-5-yl)-4-((2S,6R)-2,6-dimethylmorpholinyl)-5,6,7,8-tetrahydropyrido [3,4-d]pyrimidin-7-formyl)-4-fluorobenzyl) phthalazin-1(2H)-one] | 3.87 | 76 | 92.6 | 40 | 1010 | 784 | 1130 | 1580 | – | – | – | – | – | – | – | – | – | – | – | – | melting point: 204 to 206 °C
3 | O=C(c1cc(Cc2n[nH]c(=O)c3ccccc23)ccc1F)N1CCc2c(nc(-c3cccc4[nH]ncc34)nc2N2CCOCC2)C1 [I-8, 4-(3-(2-(1H-indazole-4-yl)-4-morpholinyl-5,6,7,8-tetrahydropyrido[3,4-d]pyrimidin-7-formyl)-4-fluorobenzyl)phthalazin-1(2H)-one] | – | 91 | – | 42 | 536 | 482 | 708 | 1150 | – | – | – | – | – | – | – | – | – | – | – | – | –
4 | Nc1ncc(-c2nc3c(c(N4CCOCC4)n2)CCN(C(=O)c2cc(Cc4n[nH]c(=O)c5ccccc45)ccc2F)C3)cn1 [I-1, 4-(3-(2-(2-aminopyrimidin-5-yl)-4-morpholinyl-5,6,7,8-tetrahydropyrido [3,4-d]pyrimidin-7-formyl)-4-fluorobenzyl) phthalazin-1(2H)-one] | 3.75 | 81 | 69 | 66 | – | – | – | < 1000 | 81 | 909 | 94.95 | obviously superior | 136.45 | 222.15 | 301.78 | 399.10 | 489.89 | 551.70 | significantly inhibit the growth | higher | Tumor Volumes ([5]; 0 day, high, 100 mg/kg): 93.30 mm^3; Tumor Volumes ([5]; 0 day, low, 25 mg/kg): 96.16 mm^3; Dose dependence of tumor growth inhibition (in words) ([5]; 25, 50, 100 mg/kg): dose-dependent manner; Tumor Volumes ([5]; 6 days, high, 100 mg/kg): 122.80 mm^3; Tumor Volumes ([5]; 6 days, low, 25 mg/kg): 205.61 mm^3; Tumor Volumes ([5]; 12 days, high, 100 mg/kg): 145.60 mm^3; Tumor Volumes ([5]; 12 days, low, 25 mg/kg): 303.37 mm^3; Tumor Volumes ([5]; 18 days, high, 100 mg/kg): 186.00 mm^3; Tumor Volumes ([5]; 18 days, low, 25 mg/kg): 401.23 mm^3; Tumor Volumes ([5]; 24 days, high, 100 mg/kg): 209.30 mm^3; Tumor Volumes ([5]; 24 days, low, 25 mg/kg): 555.25 mm^3; Tumor Volumes ([5]; 30 days, high, 100 mg/kg): 234.10 mm^3; Tumor Volumes ([5]; 30 days, low, 25 mg/kg): 707.38 mm^3; Tumor Volumes ([5]; 34 days, high, 100 mg/kg): 250.00 mm^3; Tumor Volumes ([5]; 34 days, low, 25 mg/kg): 808.40 mm^3; Tumor weights ([5]; 50 mg/kg (I-1: medium)): 0.54; Tumor weights ([5]; high, 100 mg/kg): 0.34; Tumor weights ([5]; low, 25 mg/kg): 0.85
5 | Nc1cc(C(F)(F)F)c(-c2nc3c(c(N4CCOCC4)n2)CCN(C(=O)c2cc(Cc4n[nH]c(=O)c5ccccc45)ccc2F)C3)cn1 [I-3, 4-(3-(2-(6-amino-4-(trifluoromethyl)pyridin-3-yl)-4-morpholinyl-5,6,7,8-tetrahydropyrido [3,4-d]pyrimidin-7-formyl)-4-fluorobenzyl)phthalazin-1(2H)-one] | 4.9 | 55 | 194 | 34 | < 1000 | < 1000 | – | – | 504 | 266 | 93.00 | obviously superior | 142.00 | 190.90 | 216.60 | 241.50 | 280.80 | 310.10 | significantly inhibit the growth | higher | IC50 [1]: 775 nM; IC50 [3]: 155 nM; Anti-tumor effect, ranking among the groups (in words) ([5]; 50 mg/kg): optimal; Tumor weights ([5]; 50 mg/kg (I-1: medium)): 0.44
